Experimental data as given in patent US20230041859A1, “USE OF TERPENOIDS IN THE TREATMENT OR PREVENTION OF FIBROTIC DISEASES” (Arjil Biotech Holding Company Limited, priority 2021, published 2023).

Columns and labels:
[1] = tested on: HepG2 cells; experiment: Oleic acid-induced steatosis in HepG2 cells (Oil Red O); assay type: cell-based, human; details: 6 h pre-treatment, then 0.5 mM OA for 24 h, OD 510 nm, at noncytotoxic concentration
Method: Oleic acid (OA) induced steatosis in HepG2 cells and may consider an in vitro model for human fatty liver disease. HepG2 cells were treated with different concentrations of oleic acid (OA) to induce steatosis. Intracellular lipid was stained by Oil Red O (ORO), and quantified by colorimetric assay. 0.5 mM OA was chosen for further studies (FIGS. 37 and 38). HepG2 cells were treated with test compounds ([…]) and incubated for 48 h (FIG. 39). HepG2 cells were seeded in 24-well plates and deprived from FBS for 24 h. These cells were then treated with different concentrations of test compounds for 6 h before induced with 0.5 mM OA for 24 h. Cells were gently washed with PBS and fixed using paraformaldehyde at RT, then stained with Oil Red (ORO) solution for 30 min at RT. ORO stain was extracted using pure isopropanol and the optical density was detected at 510 nm (FIG. 40).

[2] = tested on: CCl4-induced chronic liver fibrosis; experiment: CCl4-induced chronic liver fibrosis in rat; details: in vivo
Method: Blood samples are collected at week 0, 2, 4, 6, and 8. The animals are sacrificed at the end of the 8-week for histopathological examinations. FIGS. 7A, 7B, 7C depict delta weight, liver weight, and liver/body-weight ratio, respectively.
The level of clinical biochemistry such as aspartate aminotransferase (AST), alanine aminotransferase (ALT), is evaluated to determine the enzymatic activities of the livers of the control groups and the experimental groups (shown in FIGS. 8A-8C).

[3] = tested on: NO, TNF-α, IL-1β, and IL-6; experiment: Cisplatin-induced renal injury: pro-inflammatory cytokines in serum (ELISA); assay type: in vivo, mice; details: compound, dose not given
Method: TNF-α, IL-6, and IL-1β cytokines in serum The serum concentration of the pro-inflammatory cytokines (i.e. tumor necrosis factor-α (TNF-α), interleukin-6 (IL-6), and IL-1β) in serum are assessed with relevant enzyme-linked immunosorbent assay (ELISA) kits (Biosource International Inc., Sunnyvale, Calif., USA), based on the manufacturer's instructions.
(§1) Seven-to-eight-week-old male C57BL/6 mice are obtained from the BioLASCO Taiwan Co., Ltd. (Taipei, Taiwan). The animals are housed in Plexiglas cages at a constant temperature of 22±1° C. and a relative humidity of 55±5% on a 12 h dark-light cycle for at least 2 weeks before the experiment. Animals are provided food and water ad libitum. All experimental procedures are performed according to the guidelines of the Institutional Animal Ethics Committee, and the protocol is approved by the Committee for the Purpose of Control and Supervision of Experiments on Animals.
(§2) Renal fibrosis is induced via multiple injections of low-dose cisplatin. Intraperitoneal injections of cisplatin (5 mg/kg/injection; P4394, Sigma-Aldrich, St Louis, Mo.) are performed at 0, 1, and 3 weeks, for a total of 3 injections. Mice are sacrificed at 6 weeks after the first dose of cisplatin (n=6). […]

[4] = tested on: cisplatin-induced renal injury; experiment: Mice model of cisplatin-induced renal injury: serum creatinine (CRE) and BUN; assay type: in vivo; details: compounds, dose not given, daily for 7 days; p<0.001 vs cisplatin group
Method: Determination of biochemical parameters Serum creatinine and serum urea are assessed using colorimetric kits according to manufacturer's instructions. Kits of the former markers are purchased from (HUMAN Diagnostics Worldwide, Magdeburg, Germany) with a chemical analyzer (Roche Diagnostics, Cobas Mira Plus, Rotkreuz, Switzerland).
as §1
as §2, with “(n=6). To analyze the effects of samples, mice are given daily intraperitoneal injections for 7 days, starting from 4 weeks after first dose of cisplatin, and sacrificed at […] (n=6).” for “(n=6).”

[5] = tested on: Con A-induced acute hepatitis; experiment: Con A (concanavalin A) induced acute hepatitis in BALB/c mice; assay type: in vivo; details: 24 h after Con A; mean±SEM; vehicle 1.4±0.2
Description: Intravenous injection of concanavalin A (Con A) is a widely used strategy to study T cell mediated hepatitis. Con A is a lectin that can activate CD4^+ T cells, produce cytokines, and lead to liver cell damage. Dexamethasone (Dex) is a long acting synthetic corticosteroid, and has been used as anti-inflammatory and immunosuppressive medication.
Male BALB/c mice (7-9 weeks old) were purchased from BioLASCO Taiwan Co., Ltd or National Laboratory Animal Center (NLAC, Taiwan). Animals are housed five per cage with food and water provided ad libitum throughout the experiments. Room temperature is maintained at 23±2° C. with an alternating 12 h light dark cycle. Animals are acclimatized for one week to minimize the effect of stress before the experiments. All experimental protocols involving animals and their care are approved by the Institutional Animal Care and Use Committee (IACUC) in ITRI (ITRI-IACUC-2018-041 and ITRI-IACUC-2018-050; accredited by AAALAC) and are carried out according to the regulations of the Council of Agriculture, Taiwan. […]
To assess the level of hepatocellular injury after Con A treatment, serum GPT and GOT levels are measured by Fuji Dri-Chem slides (Fuji, Japan). […] Cytokine levels are measured by ProcartaPlex™ immunoassays kit according to manufacturer's instructions. […]

[6] = tested on: cisplatin-induced renal injury; experiment: Cisplatin-induced renal injury: kidney histopathology (H&E); assay type: in vivo, mice; details: compound, dose not given
Description: Kidney histopathology The anterior portion of the left lateral liver lobe from each mouse is fixed in 10% formaldehyde phosphate buffer, embedded in paraffin, cut into 5 μm sections, and then treated with an hematoxylin and eosin (H&E) stain for histological examination under the light microscopy (Nikon, ECLIPSE, TS100, Tokyo, Japan). Images are captured with a digital camera (NIS-Elements D 2.30, SP4, Build 387) at an original magnification of 400×.
as §1
Renal fibrosis is induced via multiple injections of low-dose cisplatin. […]
The histopathological changes are analyzed to determine whether Antrodia camphorata extract and compounds affected renal failure in cisplatin-stimulated mice. […]

C=C1C(=O)O[C@H]2/C=C(\C)CC3C=C(CC/C=C(\C)CC[C@H]12)C(=O)O3 (stereo partly drawn) [AR100-DS1, Ovatodiolide]
OA-induced steatosis in HepG2 cells [1]: inhibition
CCl4-induced liver injury, overall [2]: potential to partially repair
NO, TNF-α, IL-1β, and IL-6 production after cisplatin challenge [3]: improved
renal protection effect (normalization of serum CRE and BUN) [4]: significant renal protection effect
liver necrosis histopathological score (0 to 4) [5]: 0.2±0.2
necrosis and inflammatory infiltrating cells in the kidney tissue [6]: significantly improved
